Source: patent US20090018166A1, “New Pyridine Analogues X 161” (ASTRAZENECA AB, priority 2007, published 2009)

What follows are molecules tested against T1, P2Y12 receptor (Homo sapiens, UniProt Q9H244) (assay: Functional inhibition of 2-Me-S-ADP induced P2Y12 signalling (35S-GTPγS binding, membranes from P2Y12 transfected CHO-cells)). Settings: 35S-GTPγS, EC80 of 2-methyl-thio-adenosine diphosphate, P2Y12 CHO membranes; value given in each example; read-out: GTPγS(IC50 μM).
T1 construct: expressed in transfected cells; host or cells: CHO cells (membranes)
T1 sequence (Q9H244 whole entry): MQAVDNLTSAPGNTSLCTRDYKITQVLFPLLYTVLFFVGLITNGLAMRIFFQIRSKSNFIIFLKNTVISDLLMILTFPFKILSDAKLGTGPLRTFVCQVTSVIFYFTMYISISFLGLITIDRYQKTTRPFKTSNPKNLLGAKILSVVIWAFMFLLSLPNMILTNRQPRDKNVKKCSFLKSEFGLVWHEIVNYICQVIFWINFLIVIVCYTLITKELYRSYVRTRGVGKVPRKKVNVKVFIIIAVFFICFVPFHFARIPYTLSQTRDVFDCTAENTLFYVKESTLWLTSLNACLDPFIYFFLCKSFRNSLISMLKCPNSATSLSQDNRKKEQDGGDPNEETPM
Type: biochemical
Procedure: Functional inhibition of- the P2Y12 receptor can be measured by in vitro assays using cell membranes from P2Y12 transfected CHO-cells, the methodology is indicated below.
Functional inhibition of 2-Me-S-ADP induced P2Y12 signalling: 5 μg of membranes were diluted in 200 μl of 200 mM NaCl, 1 mM MgCl2, 50 mM HEPES (pH 7.4), 0.01% BSA, 30 μg/ml saponin and 10 μM GDP. To this was added an EC80 concentration of agonist (2-methyl-thio-adenosine diphosphate), the required concentration of test compound and 0.1 μCi ^35S-GTPγS. The reaction was allowed to proceed at 30° C. for 45 min. Samples were then transferred on to GF/B filters using a cell harvester and washed with wash buffer (50 mM Tris (pH 7.4), 5 mM MgCl2, 50 mM NaCl). Filters were then covered with scintilant and counted for the amount of ^35S-GTPγS retained by the filter. Maximum activity was that determined in the presence of the agonist and minimum activity in the absence of the agonist following subtraction of the value determined for non-specific activity. The effect of compounds at various concentrations was plotted according to the equation
y=A+((B−A)/(1+((C/x)̂D)))
and IC50 estimated where A is the bottom plateau of the curve i.e. the final minimum y value B is the top of the plateau of the curve i.e. the final maximum y value C is the x value at the middle of the curve. This represents the log EC50 value when A+B=100 D is the slope factor. x is the original known x values. Y is the original known y values.
For `CCCCC(=O)c1cc(C#N)c(N2CCC(C(=O)NS(=O)(=O)Cc3ccc(C#N)cc3)CC2)nc1CN1CCCC1=O` [Example 47, N-[(4-cyanobenzyl)sulfonyl]-1-{3-cyano-6-[(2-oxopyrrolidin-1-yl)methyl]-5-pentanoylpyridin-2-yl}piperidine-4-carboxamide], the IC50 was 0.043 µM. For `CC(=O)c1cc(C#N)c(N2CCC(C(=O)NS(=O)(=O)Cc3ccccc3)CC2)nc1CN1CCCC1=O` [Example 1, 1-{5-Acetyl-3-cyano-6-[(2-oxopyrrolidin-1-yl)methyl]pyridin-2-yl}-N-(benzylsulfonyl)piperidine-4-carboxamide], the IC50 was 0.283 µM. Work on `CCCCC(=O)c1cc(C#N)c(N2CCC(C(=O)NS(=O)(=O)N(C)c3ccccc3)CC2)nc1CN1CCCC1=O` [Example 22, 1-{3-Cyano-6-[(2-oxopyrrolidin-1-yl)methyl]-5-pentanoylpyridin-2-yl}-N-{[methyl(phenyl)amino]sulfonyl}piperidine-4-carboxamide] yielded an IC50 of 0.017 µM. In the case of `C=CCCC(=O)c1cc(C#N)c(N2CCC(C(=O)NS(=O)(=O)CC3CCCC3)CC2)nc1CN1CCCC1=O` [Example 27, 1-{3-cyano-6-[(2-oxopyrrolidin-1-yl)methyl]-5-pent-4-enoylpyridin-2-yl}-N-[(cyclopentylmethyl)sulfonyl]piperidine-4-carboxamide], the IC50 is reported as 0.02 µM. Work on `CCCC(=O)c1cc(C#N)c(N2CCC(C(=O)NS(=O)(=O)Cc3ccc(OC)cc3)CC2)nc1CN1CCCC1=O` [Example 35, 1-{5-Butyryl-3-cyano-6-[(2-oxopyrrolidin-1-yl)methyl]pyridin-2-yl}-N-[(4-methoxybenzyl)sulfonyl]piperidine-4-carboxamide] yielded an IC50 of 0.0097 µM. `CCCCC(=O)c1cc(C#N)c(N2CCC(C(=O)NS(=O)(=O)C(C)c3ccccc3)CC2)nc1CN1CCCC1=O` (stereo not drawn) [Example 61, 1-{3-cyano-6-[(2-oxopyrrolidin-1-yl)methyl]-5-pentanoylpyridin-2-yl}-N-[(1-phenylethyl)sulfonyl]piperidine-4-carboxamide] gave an IC50 of 0.033 µM. Molecule `CC(C)C(=O)c1cc(C#N)c(N2CCC(C(=O)NS(=O)(=O)CC3CCCC3)CC2)nc1CN1CCCC1=O` [Example 16, 1-{3-Cyano-5-isobutyryl-6-[(2-oxopyrrolidin-1-yl)methyl]pyridin-2-yl}-N-[(cyclopentylmethyl)sulfonyl]piperidine-4-carboxamide] has an IC50 of 0.396 µM. For `CCc1cnc(-c2cc(C#N)c(N3CCC(C(=O)NS(=O)(=O)N(C)c4ccc(F)cc4)CC3)nc2CN2CCCC2=O)o1` [Example 62, 1-{3-cyano-5-(5-ethyl-1,3-oxazol-2-yl)-6-[(2-oxopyrrolidin-1-yl)methyl]pyridin-2-yl}-N-{[(4-fluorophenyl)(methyl)amino]sulfonyl}piperidine-4-carboxamide], the IC50 was 0.03 µM. `CCCCC(=O)c1cc(C#N)c(N2CCC(C(=O)NS(=O)(=O)Nc3ccc(F)cc3)CC2)nc1CN1CCCC1=O` [Example 46, 1-{3-cyano-6-[(2-oxopyrrolidin-1-yl)methyl]-5-pentanoylpyridin-2-yl}-N-{[(4-fluorophenyl)amino]sulfonyl}piperidine-4-carboxamide] was tested, and the IC50 was 0.021 µM. In the case of `C=CCCC(=O)c1cc(C#N)c(N2CCC(C(=O)NS(=O)(=O)Cc3ccc(F)cc3F)CC2)nc1CN1CCCC1=O` [Example 41, 1-{3-cyano-6-[(2-oxopyrrolidin-1-yl)methyl]-5-pent-4-enoylpyridin-2-yl}-N-[(2,4-difluorobenzyl)sulfonyl]piperidine-4-carboxamide], the IC50 is reported as 0.009 µM. Work on `CCCC(=O)c1cc(C#N)c(N2CCC(C(=O)NS(=O)(=O)CC3CCCC3)CC2)nc1CN1CCCC1=O` [Example 7, 1-{5-Butyryl-3-cyano-6-[(2-oxopyrrolidin-1-yl)methyl]pyridin-2-yl}-N-[(cyclopentylmethyl)sulfonyl]piperidine-4-carboxamide] yielded an IC50 of 0.028 µM. `CCCC(=O)c1cc(Cl)c(N2CCC(C(=O)NS(=O)(=O)N(C)c3ccc(F)cc3)CC2)nc1CN1CCCC1=O` [Example 31, 1-{5-Butyryl-3-chloro-6-[(2-oxopyrrolidin-1-yl)methyl]pyridin-2-yl}-N-{[(4-fluorophenyl)(methyl)amino]sulfonyl}piperidine-4-carboxamide] was tested, and the IC50 was 0.109 µM. In the case of `CCCC(=O)c1cc(Cl)c(N2CCC(C(=O)NS(=O)(=O)N(C)c3ccc(F)cc3)CC2)nc1CN1CCCCC1=O` [Example 67, 1-{5-Butyryl-3-chloro-6-[(2-oxopiperidin-1-yl)methyl]pyridin-2-yl}-N-{[(4-fluorophenyl)(methyl)amino]sulfonyl}piperidine-4-carboxamide], the IC50 is reported as 0.445 µM. For `CCC(=O)c1cc(C#N)c(N2CCC(C(=O)NS(=O)(=O)Cc3ccc(C)cc3)CC2)nc1CN1CCCC1=O` [Example 11, 1-{3-cyano-6-[(2-oxopyrrolidin-1-yl)methyl]-5-propionylpyridin-2-yl}-N-[(4-methylbenzyl)sulfonyl]piperidine-4-carboxamide], the IC50 was 0.037 µM. In the case of `CCCC(=O)c1cc(C#N)c(N2CCC(C(=O)NS(=O)(=O)Cc3ccc(F)cc3F)CC2)nc1CN1CCCC1=O` [Example 6, 1-{5-butyryl-3-cyano-6-[(2-oxopyrrolidin-1-yl)methyl]pyridin-2-yl}-N-[(2,4-difluorobenzyl)sulfonyl]piperidine-4-carboxamide], the IC50 is reported as 0.0099 µM. In the case of `CCCC(=O)c1cc(Cl)c(N2CCC(C(=O)NS(=O)(=O)CC3CCCCC3)CC2)nc1CN1CCCC1=O` [Example 52, 1-{5-butyryl-3-chloro-6-[(2-oxopyrrolidin-1-yl)methyl]pyridin-2-yl}-N-[(cyclohexylmethyl)sulfonyl]piperidine-4-carboxamide], the IC50 is reported as 0.231 µM. Molecule `C=CCCC(=O)c1cc(C#N)c(N2CCC(C(=O)NS(=O)(=O)Cc3ccccc3)CC2)nc1CN1CCCC1=O` [Example 26, N-(benzylsulfonyl)-1-{3-cyano-6-[(2-oxopyrrolidin-1-yl)methyl]-5-pent-4-enoylpyridin-2-yl}piperidine-4-carboxamide] has an IC50 of 0.017 µM. For `CCCC(=O)c1cc(C#N)c(N2CCC(C(=O)NS(=O)(=O)N(C)c3ccccc3)CC2)nc1CN1CCCC1=O` [Example 34, 1-{5-Butyryl-3-cyano-6-[(2-oxopyrrolidin-1-yl)methyl]pyridin-2-yl}-N-{[methyl(phenyl)amino]sulfonyl}piperidine-4-carboxamide], the IC50 was 0.012 µM. Work on `CCCC(=O)c1cc(C#N)c(N2CCC(C(=O)NS(=O)(=O)CC3CCCCC3)CC2)nc1CN1CCCC1=O` [Example 36, 1-{5-Butyryl-3-cyano-6-[(2-oxopyrrolidin-1-yl)methyl]pyridin-2-yl}-N-[(cyclohexylmethyl)sulfonyl]piperidine-4-carboxamide] yielded an IC50 of 0.014 µM. In the case of `CCCCC(=O)c1cc(C#N)c(N2CCC(C(=O)NS(=O)(=O)Cc3ccccc3)CC2)nc1CN1CCCC1=O` [Example 18, N-(Benzylsulfonyl)-1-{3-cyano-6-[(2-oxopyrrolidin-1-yl)methyl]-5-pentanoylpyridin-2-yl}piperidine-4-carboxamide], the IC50 is reported as 0.013 µM. `CCC(=O)c1cc(C#N)c(N2CCC(C(=O)NS(=O)(=O)Cc3ccccc3)CC2)nc1CN1CCCC1=O` [Example 10, N-(benzylsulfonyl)-1-{3-cyano-6-[(2-oxopyrrolidin-1-yl)methyl]-5-propionylpyridin-2-yl}piperidine-4-carboxamide] gave an IC50 of 0.098 µM. Work on `CCCC(=O)c1cc(C#N)c(N2CCC(C(=O)NS(=O)(=O)Cc3ccccc3)CC2)nc1CN1CCCC1=O` [Example 2, N-(Benzylsulfonyl)-1-{5-butyryl-3-cyano-6-[(2-oxopyrrolidin-1-yl)methyl]pyridin-2-yl}piperidine-4-carboxamide] yielded an IC50 of 0.022 µM. In the case of `CCCC(=O)c1cc(Cl)c(N2CCC(C(=O)NS(=O)(=O)Cc3ccccc3)CC2)nc1CN1CCCC1=O` [Example 30, N-(Benzylsulfonyl)-1-{5-butyryl-3-chloro-6-[(2-oxopyrrolidin-1-yl)methyl]pyridin-2-yl}piperidine-4-carboxamide], the IC50 is reported as 0.062 µM. `CCCCC(=O)c1cc(C#N)c(N2CCC(C(=O)NS(=O)(=O)Cc3ccc(C(C)C)cc3)CC2)nc1CN1CCCC1=O` [Example 49, 1-{3-cyano-6-[(2-oxopyrrolidin-1-yl)methyl]-5-pentanoylpyridin-2-yl}-N-[(4-isopropylbenzyl)sulfonyl]piperidine-4-carboxamide] was tested, and the IC50 was 0.031 µM. Molecule `CCCCC(=O)c1cc(C#N)c(N2CCC(C(=O)NS(=O)(=O)N(C)c3ccc(F)cc3)CC2)nc1CN1CCCC1=O` [Example 21, 1-{3-Cyano-6-[(2-oxopyrrolidin-1-yl)methyl]-5-pentanoylpyridin-2-yl}-N-{[(4-fluorophenyl)(methyl)amino]sulfonyl}piperidine-4-carboxamide] has an IC50 of 0.023 µM. Work on `N#Cc1cc(C(=O)C2CC2)c(CN2CCCC2=O)nc1N1CCC(C(=O)NS(=O)(=O)Cc2ccccc2)CC1` [Example 8, N-(benzylsulfonyl)-1-{3-cyano-5-(cyclopropylcarbonyl)-6-[(2-oxopyrrolidin-1-yl)methyl]pyridin-2-yl}piperidine-4-carboxamide] yielded an IC50 of 0.032 µM. With `CCCC(=O)c1cc(C#N)c(N2CCC(C(=O)NS(=O)(=O)Nc3ccc(F)cc3)CC2)nc1CN1CCCC1=O` [Example 37, 1-{5-Butyryl-3-cyano-6-[(2-oxopyrrolidin-1-yl)methyl]pyridin-2-yl}-N-{[(4-fluorophenyl)amino]sulfonyl}piperidine-4-carboxamide] the IC50 was 0.019 µM.
